Legend:
Experiment in all cases: relative viability (nuclei count vs DMSO), 5 days (fraction); higher = more cells survive
BX 795 + Dasatinib = compound: O=C(NCCCNc1nc(Nc2cccc(NC(=O)N3CCCC3)c2)ncc1I)c1cccs1 [BX 795] + Cc1nc(Nc2ncc(C(=O)Nc3c(C)cccc3Cl)s2)cc(N2CCN(CCO)CC2)n1 [Dasatinib] (partner 0.075 µM)
In short: (§1)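 One day after seeding in 1536-well plates, lung cancer cell lines were dosed by pin tool. Dosing was either single-drug or a fixed anchor-drug dose plus five library-drug doses (not always all listed) in √10 steps. After 5 days, nuclei were stained in one fix-and-stain step and counted on 4× images, and relative viability is the nuclei count of treated wells over that of vehicle wells, given as the median of duplicate plates.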

BX 795 + Lapatinib = compound: O=C(NCCCNc1nc(Nc2cccc(NC(=O)N3CCCC3)c2)ncc1I)c1cccs1 [BX 795] + CS(=O)(=O)CCNCc1ccc(-c2ccc3ncnc(Nc4ccc(OCc5cccc(F)c5)c(Cl)c4)c3c2)o1 [Lapatinib] (partner 2 µM)
In short: as §1

BX 795 + Foretinib = compound: O=C(NCCCNc1nc(Nc2cccc(NC(=O)N3CCCC3)c2)ncc1I)c1cccs1 [BX 795] + COc1cc2c(Oc3ccc(NC(=O)C4(C(=O)Nc5ccc(F)cc5)CC4)cc3F)ccnc2cc1OCCCN1CCOCC1 [Foretinib] (partner 0.25 µM)
In short: as §1

BX 795 + Vorinostat = compound: O=C(NCCCNc1nc(Nc2cccc(NC(=O)N3CCCC3)c2)ncc1I)c1cccs1 [BX 795] + O=C(CCCCCCC(=O)Nc1ccccc1)NO [Vorinostat] (partner 1 µM)
In short: as §1

BX 795 + Trametinib = compound: O=C(NCCCNc1nc(Nc2cccc(NC(=O)N3CCCC3)c2)ncc1I)c1cccs1 [BX 795] + CC(=O)Nc1cccc(-n2c(=O)n(C3CC3)c(=O)c3c(Nc4ccc(I)cc4F)n(C)c(=O)c(C)c32)c1 [Trametinib] (partner 0.02 µM)
In short: as §1

Cell Line	relative viability (BX 795 + Dasatinib; first compound 0.04 µM)	relative viability (BX 795 + Dasatinib; first compound 0.1265 µM)	relative viability (BX 795 + Dasatinib; first compound 0.4 µM)	relative viability (BX 795 + Dasatinib; first compound 1.265 µM)	relative viability (BX 795 + Lapatinib; first compound 0.04 µM)	relative viability (BX 795 + Lapatinib; first compound 0.1265 µM)	relative viability (BX 795 + Lapatinib; first compound 0.4 µM)	relative viability (BX 795 + Lapatinib; first compound 1.265 µM)	relative viability (BX 795 + Foretinib; first compound 0.04 µM)	relative viability (BX 795 + Foretinib; first compound 0.1265 µM)	relative viability (BX 795 + Foretinib; first compound 0.4 µM)	relative viability (BX 795 + Foretinib; first compound 1.265 µM)	relative viability (BX 795 + Vorinostat; first compound 0.04 µM)	relative viability (BX 795 + Vorinostat; first compound 0.1265 µM)	relative viability (BX 795 + Vorinostat; first compound 0.4 µM)	relative viability (BX 795 + Vorinostat; first compound 1.265 µM)	relative viability (BX 795 + Trametinib; first compound 0.04 µM)	relative viability (BX 795 + Trametinib; first compound 0.1265 µM)	relative viability (BX 795 + Trametinib; first compound 0.4 µM)	relative viability (BX 795 + Trametinib; first compound 1.265 µM)
HCC-366	0.757	0.73	0.498	0.631	0.834	1.11	0.858	1.12	0.973	0.959	0.94	0.235	0.311	0.295	0.224	0.0717	0.391	0.338	0.421	0.32
HCC-827	0.334	0.375	0.307	0.414	0.186	0.18	0.215	0.191	1.18	1.12	1.09	1.04	0.756	0.689	0.901	0.79	0.54	0.539	0.575	0.551
HOP-62	0.659	0.797	0.668	0.576	1.09	1.1	1.29	1.07	1.04	0.967	1.37	0.923	0.807	0.638	0.546	0.456	0.374	0.369	0.365	0.317
IA-LM	–	–	–	–	0.94	0.994	1.5	0.544	1.15	1.19	1.28	0.628	0.79	1.06	0.992	0.892	–	–	–	–
LC-2-ad	0.416	0.497	0.391	0.285	0.89	0.962	0.7	0.274	1.12	0.867	0.981	0.808	0.755	0.759	0.595	0.37	0.886	0.95	0.646	0.662
LCLC-97TM1	0.719	0.888	0.764	0.76	1.05	0.842	0.926	0.362	0.912	0.913	0.862	0.567	0.774	0.725	0.768	0.468	0.203	0.19	0.179	0.166
LCLC-103H	0.55	0.481	0.553	0.412	–	–	–	–	0.848	0.843	0.847	0.621	0.675	0.811	0.699	0.695	0.578	0.681	0.712	0.651
LK-2	0.35	0.201	0.291	0.304	1.02	0.912	0.83	0.797	0.937	1.51	1.31	1.1	0.398	0.37	0.286	0.239	0.757	0.837	0.583	0.629
LOU-NH91	0.63	0.662	0.583	0.564	0.698	0.744	0.708	0.715	0.936	0.922	0.934	0.979	0.846	0.955	0.842	0.903	0.724	0.788	0.763	0.734
LU99A	0.78	0.571	0.472	0.364	1.05	1.03	0.714	0.665	0.808	0.901	0.793	0.602	0.472	0.485	0.37	0.363	0.558	0.484	0.41	0.278
LXF-289	0.209	0.28	0.185	0.15	0.867	0.896	0.904	0.843	0.963	0.908	1.02	0.9	0.838	0.719	0.811	0.674	0.523	0.67	0.725	0.631
NCI-H23	0.871	0.8	0.507	0.884	1.24	1.26	0.812	0.884	0.943	0.872	1	0.472	0.583	0.651	0.376	0.285	0.341	0.338	0.368	0.312
NCI-H441	0.695	0.7	0.587	0.459	–	–	–	–	1.28	0.908	1.18	0.796	0.893	0.843	0.848	0.613	0.545	0.4	0.596	0.335
NCI-H522	0.972	0.769	0.764	0.849	–	–	–	–	–	–	–	–	0.9	0.864	0.875	0.72	0.84	0.781	0.803	0.616
NCI-H1563	0.476	0.429	0.439	0.405	1.01	1.01	1.05	0.785	0.914	1.04	0.925	0.848	–	–	–	–	–	–	–	–
NCI-H1792	0.792	0.764	0.821	0.664	0.872	0.903	0.981	0.842	–	–	–	–	–	–	–	–	0.425	–	0.525	0.509
NCI-H2342	0.307	0.319	0.287	0.312	–	–	–	–	1.17	0.896	1.07	0.914	0.754	0.734	0.651	0.726	0.796	0.774	0.892	0.766
SW 900	0.737	0.541	0.414	0.259	–	–	–	–	0.938	1.04	0.968	0.569	0.482	–	0.611	0.604	0.819	–	0.99	0.706
